Square brackets hold non-standard residues; d marks the D form. Peptide text beside a SMILES is read from it. * marks the point of attachment. Phe(4-NO2) = N[C@@H](Cc1ccc([N+](=O)[O-])cc1)C(=O)O; hPhe = N[C@@H](CCc1ccccc1)C(=O)O; Cha = N[C@@H](CC1CCCCC1)C(=O)O; Phg = N[C@H](C(=O)O)c1ccccc1; Morpholide = C1CN(*)CCO1; Nle = CCCC[C@H](N)C(=O)O; Piperidide = C1CCN(*)CC1; Pyrrolidide = C1CCN(*)C1; NHDecyl = CCCCCCCCCCN*; PhAc = O=C(Cc1ccccc1)*; Inp = O=C(O)C1CCNCC1; Bz = O=C(c1ccccc1)*; NHBu = CCCCN*
What follows are molecules tested against T1, VLA-4 (Homo sapiens, UniProt P05556+P13612). Conditions: not given.
T1 construct: host or cells: Jurkat (human T lymphoblastic line)
T1 sequence (P13612 34-1032): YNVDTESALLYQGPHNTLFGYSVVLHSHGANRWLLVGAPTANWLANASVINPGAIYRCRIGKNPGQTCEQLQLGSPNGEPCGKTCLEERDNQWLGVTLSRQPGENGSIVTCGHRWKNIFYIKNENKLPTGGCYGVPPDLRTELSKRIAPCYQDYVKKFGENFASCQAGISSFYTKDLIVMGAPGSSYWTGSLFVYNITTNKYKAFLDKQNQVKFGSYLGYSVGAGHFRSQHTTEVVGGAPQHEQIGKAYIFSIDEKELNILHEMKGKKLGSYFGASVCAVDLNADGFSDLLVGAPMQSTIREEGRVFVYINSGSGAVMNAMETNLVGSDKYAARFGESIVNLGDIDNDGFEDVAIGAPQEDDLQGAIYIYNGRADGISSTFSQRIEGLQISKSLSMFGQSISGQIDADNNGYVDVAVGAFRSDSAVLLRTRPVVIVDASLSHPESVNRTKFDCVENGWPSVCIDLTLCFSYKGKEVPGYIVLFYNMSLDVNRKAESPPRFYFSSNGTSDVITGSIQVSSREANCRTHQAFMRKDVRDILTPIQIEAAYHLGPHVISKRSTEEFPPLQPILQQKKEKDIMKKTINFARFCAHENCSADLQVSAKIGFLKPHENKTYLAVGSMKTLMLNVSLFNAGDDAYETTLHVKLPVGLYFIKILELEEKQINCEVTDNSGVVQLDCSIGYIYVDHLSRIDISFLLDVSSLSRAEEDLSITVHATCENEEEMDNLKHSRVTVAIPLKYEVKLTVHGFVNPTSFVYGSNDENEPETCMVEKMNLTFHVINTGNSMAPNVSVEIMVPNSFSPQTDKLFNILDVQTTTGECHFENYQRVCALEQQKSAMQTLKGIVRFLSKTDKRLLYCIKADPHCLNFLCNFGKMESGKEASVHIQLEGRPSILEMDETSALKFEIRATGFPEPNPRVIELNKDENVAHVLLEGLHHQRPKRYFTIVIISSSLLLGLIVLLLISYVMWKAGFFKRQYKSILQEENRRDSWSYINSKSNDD
T1 sequence (P05556 21-798): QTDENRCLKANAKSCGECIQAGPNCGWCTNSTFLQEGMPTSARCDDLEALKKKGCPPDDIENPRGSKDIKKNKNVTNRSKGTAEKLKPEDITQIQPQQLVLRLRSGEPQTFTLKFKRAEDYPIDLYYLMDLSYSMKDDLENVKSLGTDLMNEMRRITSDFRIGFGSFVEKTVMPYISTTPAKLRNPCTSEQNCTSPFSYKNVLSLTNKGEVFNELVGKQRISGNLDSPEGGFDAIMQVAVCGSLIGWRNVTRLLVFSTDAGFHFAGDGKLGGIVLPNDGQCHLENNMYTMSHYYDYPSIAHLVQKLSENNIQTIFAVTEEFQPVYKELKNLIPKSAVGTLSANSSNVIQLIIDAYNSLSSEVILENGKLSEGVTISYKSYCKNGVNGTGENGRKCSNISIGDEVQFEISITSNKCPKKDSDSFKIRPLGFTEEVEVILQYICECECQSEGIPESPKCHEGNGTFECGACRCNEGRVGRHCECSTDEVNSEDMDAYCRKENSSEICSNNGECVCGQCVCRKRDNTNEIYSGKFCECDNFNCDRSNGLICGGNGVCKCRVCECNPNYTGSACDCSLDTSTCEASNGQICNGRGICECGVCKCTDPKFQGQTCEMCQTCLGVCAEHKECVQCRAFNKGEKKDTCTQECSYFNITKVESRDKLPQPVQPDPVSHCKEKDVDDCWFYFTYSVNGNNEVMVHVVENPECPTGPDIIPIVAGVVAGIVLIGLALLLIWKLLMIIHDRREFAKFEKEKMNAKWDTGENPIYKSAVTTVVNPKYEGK
Format: cell-based
Protocol: Binding inhibition is measured here as a concentration of peptide that inhibits one-half the binding between a standard number of Jurkat cells and a standard amount of CS-1 peptide bound to the surface of a microtiter plate well. Those concentrations are conveniently expressed as IC50 values, smaller numbers indicating a lower concentration required to inhibit 50 percent binding and therefore greater potency. Further specifics of this assay are provided hereinafter.
Jurkat cells (ATCC TIB 152), a human T lymphoblastic line, labeled with ^51 chromium were used to assay in vitro binding inhibition provided by various peptides discussed herein.
The plates were prepared as follows: The 25-mer CS1 peptide (SEQ ID NO:1) dissolved at 0.5-1 μg/ml in a buffer of 0.1M NaHCO3 at pH 9.5 tha also contained 10 μg/ml of bovine serum albumin (BSA) or a conjugate o the CS1 peptide linked to ovalbumin (CS1-OVA) dissolved at 1-2.5 μg/ml in the same buffer was used as the substrate. Each well of the microtiter plates was coated with 50 μl of substrate or buffer alone for controls The wells were permitted to dry out completely and were then rinsed twice with PBS at pH 7.4. Nonspecific binding sites of each well were then blocked using 200 μl per well of RPMI/1 percent BSA for two hours at room temperature. Both solid phaseaffixed substrates provided similar results.
Jurkat cells (3-5×10^6 cells) were placed into a 15 ml Falcon.TM roundbottom tube with a cap. The tube was centrifuged, and the extra medium was then removed.
Two hundred microliters of a ^51 Cr labeling solution were added to th centrifuged cells and maintained in contact with the cells for 90-120 minutes in a warm room. This procedure typically provides about 50,000-100,000 cpm/well with about 80-100 percent cell viability. Longer contact times provide a greater amount of labeling but lower cell viability.
The labeled cells are washed with (i) complete medium, (ii) 1 mM EDTA/PBS and then (iii) RPMI/1 percent BSA free of serum components. The cells are centrifuged after each washing. The cells are finally resuspended in serumfree RPMI/1 percent BSA at a concentration of 1×10^6 viabl cells/ml, which provides a concentration that is diluted by onehalf in th assay.
Inhibitor peptides are prepared as stock solutions at 20 mg/ml in DMSO in 1.5 ml cryogenic screwcap vials, and were stored at -70° C. Using Flow™ roundbottom or Vbottom microtiter plates, the inhibitor peptides were prepared at twice the assay concentration in RPMI/1 percent BSA at 6 μl/well.
Four initial dilutions were typically used.
The ^51 Crlabeled cells (1×10^6 cells at 60 μl/well) were then admixed with the diluted peptide solutions. The admixtures were maintained at room temperature (about 22° C.) for 30 minutes.
One hundred microliters of each inhibitor peptide/cell admixture were transferred to the substratecoated wells. This was done in triplicate for each dilution. The resulting plates were incubated for 30 minutes at 37° C. and then washed gently three times with RPMI/1 percent BSA at 200 μl/well. Binding was observed microscopically, particularly after the second wash.
The bound cells were then lysed by the addition of a 0.5 percent solution of sodium dodecylsulfate in water at 100 μl/well. The resulting solutions were then processed for counting and calculation of IC50 values following usual procedures. Appropriate positive and negative controls were used with each plate so that the results of separate assays could be normalized and compared.

Compound | RELATIVE POTENCY (inhibition of VLA-4 binding CS-1)
CC(=O)N[C@@H](CC(C)C)C(=O)N[C@@H](CC(=O)O)C(=O)N[C@@H](Cc1ccccc1)C(N)=O [L D F acetyl amide] (Ac-Leu-Asp-Phe-NH2) | 0
CC(=O)N[C@@H](CC(C)C)C(=O)N[C@@H](CC(=O)O)C(=O)N[C@H](C(N)=O)C(C)C [L D V acetyl amide, reference compound] (Ac-Leu-Asp-Val-NH2) | 0

Same assay, conditions: compared to standard 10-mer / B12

Compound | binding inhibition (in words)
CC[C@H](C)[C@H](NC(=O)[C@H](CCC(=O)O)NC(=O)[C@@H]1CCCN1C(=O)CNC(=O)[C@H](Cc1c[nH]cn1)NC(=O)[C@H](CC(C)C)NC(=O)[C@H](CC(N)=O)NC(=O)[C@@H]1CCCN1C(=O)[C@H](Cc1c[nH]cn1)NC(=O)[C@@H]1CCCN1C(=O)[C@H](CC(C)C)NC(=O)[C@@H](NC(=O)[C@@H](NC(=O)[C@H](CC(C)C)NC(=O)[C@H](CCC(N)=O)NC(=O)[C@@H]1CCCN1C(=O)[C@H](CC(C)C)NC(=O)[C@H](CCC(=O)O)NC(=O)[C@@H](N)CC(=O)O)C(C)C)[C@@H](C)O)C(=O)N[C@@H](CC(C)C)C(=O)N[C@@H](CC(=O)O)C(=O)N[C@H](C(=O)N1CCC[C@H]1C(=O)N[C@@H](CO)C(=O)N[C@H](C(=O)O)[C@@H](C)O)C(C)C [CS-1 peptide, reference compound] (H-DELPQLVTLPHPNLHGPEILDVPST-OH) | three times more potent

Same assay, conditions: relative to standard peptide SEQ ID NO:3 (=1), normalized IC50; about one-tenth or less of SEQ ID NO:3 assigned zero

Compound | RELATIVE POTENCY (inhibition of VLA-4 binding CS-1)
CCCCCCCCCC(=O)OC1CCN(C(=O)[C@H](Cc2ccccc2)NC(=O)[C@H](CC(=O)O)NC(=O)[C@H](CC(C)C)NC(=O)Cc2ccccc2)CC1 | < 1
CCCCCCCCCCCCCCCCCC(=O)OC1CCN(C(=O)[C@H](Cc2ccccc2)NC(=O)[C@H](CC(=O)O)NC(=O)[C@H](CC(C)C)NC(=O)Cc2ccccc2)CC1 | < 1
CC(C)C[C@H](NC(=O)Cc1ccccc1)C(=O)N[C@@H](CC(=O)O)C(=O)NC(Cc1ccccc1)Cc1ccccc1 | 0
CC(C)C[C@H](NC(=O)Cc1ccccc1)C(=O)N[C@@H](CC(=O)O)C(=O)NN(Cc1ccccc1)C(=O)C1CCCC1 | 1
CC(C)C[C@H](NC(=O)Cc1ccccc1)C(=O)N[C@@H](CC(=O)O)C(=O)NN(Cc1ccccc1)Cc1ccccc1 | 0
NC(=O)[C@H]1CCCN1C(=O)[C@H](Cc1ccccc1)NC(=O)[C@H](CC(=O)O)NC(=O)[C@H](CC1CCCCC1)NC(=O)c1ccccc1 (Bz-[Cha]DF[dP]-NH2) | 17
CC(C)[C@H](NC(=O)[C@H](CC(=O)O)NC(=O)[C@H](CC1CCCCC1)NC(=O)c1ccccc1)C(=O)N1CCC[C@@H]1C(N)=O (Bz-[Cha]DV[dP]-NH2) | 11
CC(C)C[C@H](NC(=O)Cc1ccccc1)C(=O)N[C@@H](CC(=O)O)C(=O)N[C@@H](Cc1ccccc1)C(=O)N1CCC(C(N)=O)CC1 (PhAc-LDF[Inp]-NH2) | 933
CC(C)C[C@H](NC(=O)Cc1ccccc1)C(=O)N[C@@H](CC(=O)O)C(=O)N[C@@H](Cc1ccccc1)C(=O)N1CCC(C(=O)O)CC1 (PhAc-LDF[Inp]-OH) | 828
CC(C)C[C@H](NC(=O)Cc1ccccc1)C(=O)N[C@@H](CC(=O)O)C(=O)N[C@@H](Cc1ccc([N+](=O)[O-])cc1)C(=O)N1CCC[C@@H]1C(N)=O (PhAc-LD[Phe(4-NO2)][dP]-NH2) | 40
CC(C)C[C@H](NC(=O)Cc1ccccc1)C(=O)N[C@@H](CC(=O)O)C(=O)N[C@H](C(=O)N1CCC[C@@H]1C(N)=O)c1ccccc1 (PhAc-LD[Phg][dP]-NH2) | 61
CC(C)C[C@H](NC(=O)Cc1ccccc1)C(=O)N[C@@H](CC(=O)O)C(=O)N[C@@H](CCc1ccccc1)C(=O)N1CCC[C@@H]1C(N)=O (PhAc-LD[hPhe][dP]-NH2) | 94
NC(=O)[C@H]1CCCN1C(=O)[C@H](Cc1ccccc1)NC(=O)[C@H](CC(=O)O)NC(=O)[C@H](CC1CCCCC1)NC(=O)Cc1ccccc1 (PhAc-[Cha]DF[dP]-NH2) | 217
CCCC[C@H](NC(=O)Cc1ccccc1)C(=O)N[C@@H](CC(=O)O)C(=O)N[C@@H](Cc1ccccc1)C(=O)N1CCC[C@@H]1C(N)=O [X K D F p phenylacetyl amide J = Nle] (PhAc-[Nle]DF[dP]-NH2) | 49
CCCCCCCCCCNC(=O)[C@@H]1CCCN1C(=O)[C@H](Cc1ccccc1)NC(=O)[C@H](CC(=O)O)NC(=O)[C@H](CC(C)C)NC(=O)Cc1ccccc1 [X L D F P Z phenylacetyl decylamide] (PhAc-LDFP-NHDecyl) | 2
CC(C)C[C@H](NC(=O)Cc1ccccc1)C(=O)N[C@@H](CC(=O)O)C(=O)N[C@@H](Cc1ccccc1)C(=O)N1CCOCC1 [X L D F Z phenylacetyl morpholinamide, N--phenylacetyl--Leu--Asp--Phe--morpholinamide] (PhAc-Leu-Asp-Phe-Morpholide) | 844
CCCCNC(=O)[C@H](Cc1ccccc1)NC(=O)[C@H](CC(=O)O)NC(=O)[C@H](CC(C)C)NC(=O)Cc1ccccc1 [X L D F Z phenylacetyl n-butylamide] (PhAc-Leu-Asp-Phe-NHBu) | 3
CC(C)C[C@H](NC(=O)Cc1ccccc1)C(=O)N[C@@H](CC(=O)O)C(=O)N[C@@H](Cc1ccccc1)C(=O)N1CCNCC1 [X L D F Z phenylacetyl piperazinamide] | 506
CC(C)C[C@H](NC(=O)Cc1ccccc1)C(=O)N[C@@H](CC(=O)O)C(=O)N[C@@H](Cc1ccccc1)C(=O)N1CCCCC1 [X L D F Z phenylacetyl piperidinamide, N--phenylacetyl--Leu--Asp--Phe--piperidinamide] (PhAc-Leu-Asp-Phe-Piperidide) | 231
CC(C)C[C@H](NC(=O)Cc1ccccc1)C(=O)N[C@@H](CC(=O)O)C(=O)N[C@@H](Cc1ccccc1)C(=O)N1CCCC1 [X L D F Z phenylacetyl pyrrolidinamide] (PhAc-Leu-Asp-Phe-Pyrrolidide) | 250
CC(C)C[C@H](NC(=O)c1ccccc1)C(=O)N[C@@H](CC(=O)O)C(=O)N[C@@H](Cc1ccccc1)C(=O)N1CCC[C@@H]1C(N)=O [X L D F p benzoyl amide] (Bz-LDF[dP]-NH2) | 75
CC(C)C[C@H](NC(=O)Cc1ccccc1)C(=O)N[C@@H](CC(=O)O)C(=O)N[C@@H](Cc1ccccc1)C(N)=O [X L D F phenylacetyl amide] (PhAc-Leu-Asp-Phe-NH2) | < 1
CC(C)C[C@H](NC(=O)Cc1ccccc1)C(=O)N[C@@H](CC(=O)O)C(=O)NCC(=O)N1CCOCC1 [X L D G Z phenylacetyl morpholinamide] (PhAc-Leu-Asp-Gly-Morpholide) | 9
CC(C)C[C@H](NC(=O)Cc1ccccc1)C(=O)N[C@@H](CC(=O)O)C(=O)N[C@@H](CC(C)C)C(=O)N1CCOCC1 [X L D L Z phenylacetyl morpholinamide] (PhAc-Leu-Asp-Leu-Morpholide) | 291
CC(C)C[C@H](NC(=O)Cc1ccccc1)C(=O)N[C@@H](CC(=O)O)C(=O)N[C@@H](CO)C(=O)N1CCC[C@@H]1C(N)=O [X L D S p phenylacetyl amide] (PhAc-LDS[dP]-NH2) | 17

Same assay, conditions: relative to standard peptide SEQ ID NO:3 (=1), normalized IC50; about one-tenth or less of SEQ ID NO:3 assigned zero; listed as Leu--Asp--Val (LDV) Nfre amine Camide

Compound | RELATIVE POTENCY (inhibition of VLA-4 binding CS-1)
CC(C)C[C@H](N)C(=O)N[C@@H](CC(=O)O)C(=O)N[C@H](C(N)=O)C(C)C [L D V free amine amide, reference compound] (H-Leu-Asp-Val-NH2) | zero
